PMC9719540, “Synthesis of an amphiphilic vancomycin aglycone derivative inspired by polymyxins: overcoming glycopeptide resistance in Gram-positive and Gram-negative bacteria in synergy with teicoplanin in vitro” (Scientific Reports, 2022)
“And” between values parts separate entries of the source, which are not always exact repeats. Identical values can stand only once. Counter-ions that a name gives are not always drawn. Like-named read-outs stand apart in the source and are kept apart here.

Key:
hCMEC/D3 cells [1] = assay: MTT cytotoxicity (cell viability); format: cell-based, human
Procedure: (§1) The human immortalized hCMEC/D3 cells (Merck KGaA, Darmstadt, Germany, Cat. # SCC066) were cultured in EndoGRO-MV Complete Culture Media (supplemented with the components of the kit and fibroblast growth factor 2 (FGF-2) at 1 ng/mL final concentration).
(§2) In cell viability experiments, 1 × 10^4 hCMEC/D3 or Caco-2 cells/well were seeded on 96-weel plates. After 24 h of incubation, cells were treated with test solutions in different concentrations. The stock solution of the test molecule was dissolved in DMSO and further diluted with cell culture medium to prepare test solutions. […] The control group received culture medium. Cells were incubated with the test solutions for 72 h at 37 °C in an atmosphere of 5% CO2, and test solutions were replaced with 0.05 mg/ml 3-(4,5-dimethylthiazol-2-yl)-2,5-diphenyltetrazolium bromide (MTT) solutions prepared in PBS. Cells were incubated with MTT solutions for 4 h at 37 °C and the formed dark blue formazan crystals were dissolved in acidic isopropanol (isopropanol: 1.0 N hydrochloric acid = 25:1). The absorbance was measured at 570 nm against a 690 nm reference wavelength with a Thermo Fisher Multiskan Go microplate reader (Thermo Fisher, Waltham, MA, USA). Cell viability was expressed as the percentage of the untreated control and IC50 values were calculated by GraphPad Prism 7 software (GraphPad Software Inc., San Diego, CA, USA).

hCMEC/D3 cells [2] = assay: MTT cytotoxicity of combinations, checkerboard configuration; format: cell-based, human
Procedure: as §1
as §2, with “CA, USA). […]” for “CA, USA).”

Caco-2 cells [3] = assay: as above; format: cell-based, human; settings: teicoplanin : compound 14 32:2 µg/mL
Procedure: (§3) Human Caco-2 intestinal epithelial cells were obtained from European Collection of Cell Cultures (ECACC, UK) and grown routinely in Dulbecco’s Minimum Essential Medium (DMEM), supplemented with 10% fetal bovine serum (FBS), 1% non-essential amino acid and 1% penicillin–streptomycin solution.
as §2, with “in PBS. […] The absorbance” for “in PBS. Cells were incubated with MTT solutions for 4 h at 37 °C and the formed dark blue formazan crystals were dissolved in acidic isopropanol (isopropanol: 1.0 N hydrochloric acid = 25:1). The absorbance”, “CA, USA). […]” for “CA, USA).”

Caco-2 cells [4] = assay: MTT cytotoxicity (cell viability); format: cell-based, human
Procedure: as §3, §2

[5] = test system: Staphylococcus aureus MSSA ATCC 29213; assay: Antibacterial activity (MIC); format: cell-based
Procedure: (§4) The routine antibacterial evaluations were carried out as it was described in our previous publication. Antimicrobial synergy was determined by evaluating the fractional inhibitory concentration (FIC) index and was characterized by a conventional checkerboard assay. Bacteria grown to mid-logarithmic phase in MHB were pre-incubated with serially diluted concentrations of teicoplanin or vancomycin and compound 14. The sum of the FICs (ΣFIC) was calculated with the equation ΣFIC = FICA + FICB = (CA/MICA) + (CB/MICB), where MICA and MICB are the MICs of antimicrobial A and B alone, respectively, and CA and CB are the inhibitory concentrations of the drugs when combined, respectively. Synergy was defined as a ΣFICs ≤ 0.5 and additive activity was defined as a ΣFICs > 0.5 ≤ 1.0.

[6] = test system: Enterococcus faecalis ATCC 29212; assay: Antibacterial activity (MIC); format: cell-based; settings: for MIC: ATCC29212
Procedure: as §4

[7] = test system: Acinetobacter baumannii ATCC BAA1605; assay: Antibacterial activity (MIC); format: cell-based
Procedure: as §4

[8] = test system: Pseudomonas aeruginosa ATCC 27853; assay: Antibacterial activity (MIC); format: cell-based; settings: ATCC27853
Procedure: as §4

[9] = test system: Klebsiella pneumoniae ST258 clone K 160/09; assay: Antibacterial activity (MIC); format: cell-based
Procedure: as §4

[10] = test system: Escherichia coli ATCC 25218; assay: Antibacterial activity (MIC); format: cell-based; settings: ATCC25218
Procedure: as §4

[11] = test system: Staphylococcus aureus MRSA ATCC 33591; assay: Antibacterial activity (MIC); format: cell-based
Procedure: as §4

[12] = test system: Staphylococcus epidermidis mecA; assay: Antibacterial activity (MIC); format: cell-based
Procedure: as §4

[13] = test system: Enterococcus faecalis ATCC 51299 VanB; assay: Antibacterial activity (MIC); format: cell-based
Procedure: as §4

[14] = test system: Staphylococcus epidermidis ATCC 35984 biofilm; assay: Antibacterial activity (MIC); format: cell-based
Procedure: as §4

[15] = test system: Bacillus subtilis ATCC 6633; assay: Antibacterial activity (MIC); format: cell-based; settings: ATCC6633
Procedure: as §4

[16] = test system: Enterococcus faecalis 15376 VanA; assay: Antibacterial activity (MIC); format: cell-based
Procedure: as §4

[17] = test system: Acinetobacter baumannii ATCC BAA1605; assay: Checkerboard assay, combined susceptibility (FIC index); format: cell-based; settings: for MIC of antibiotic in comb.: antibiotic combined with 14; for MIC of antibiotic alone: checkerboard
Procedure: (§5) To determine the activity profile of teicoplanin and vancomycin in combination with compound 14, combined susceptibility tests were perfomed against […] Gram negative strains including Escherichia coli, Pseudomonas aeruginosa, Acinetobacter baumannii and Klebsiella pneumoniae bacteria. The combined effects of compound 14 and the glycopeptide antibiotics were determined by conventional checkerboard assays (images of the chequerboard assay for synergistic combinations are shown in Supplementary Information S1).
as §4

[18] = test system: Pseudomonas aeruginosa ATCC 27853; assay: as above; format: cell-based; settings: for MIC of antibiotic in comb.: antibiotic combined with 14; for MIC of antibiotic alone: checkerboard
Procedure: as §5, §4

[19] = test system: Klebsiella pneumoniae ST258 clone K 160/09; assay: as above; format: cell-based; settings: for MIC of antibiotic in comb.: antibiotic combined with 14
Procedure: as §5, §4

[20] = test system: Escherichia coli ATCC 25218; assay: as above; format: cell-based; settings: for MIC of antibiotic in comb.: antibiotic combined with 14; for MIC of antibiotic alone: checkerboard
Procedure: as §5, §4

[21] = MTT cytotoxicity (cell viability); format: cell-based, human; settings: human; Caco-2 cells, MTT, 72 h
Procedure: as §3, §2

[22] = between 0.082 and 200 µM (0.155–375.94 µg/mL)

CCCCCCCCCC(=O)N[C@H](CC(C)C)C(=O)N[C@H]1C(=O)N[C@@H](CC(N)=O)C(=O)N[C@H]2C(=O)N[C@H]3C(=O)N[C@H](C(=O)N[C@H](C(=O)NCCN)c4cc(OCCN)cc(OCCN)c4-c4cc3ccc4OCCN)[C@H](O)c3ccc(c(Cl)c3)Oc3cc2cc(c3OCCN)Oc2ccc(cc2Cl)[C@H]1O [Compound 14, Tetraaminoethyl N-decanoyl norvancomycin aglycone aminoethyl amide trifluoroacetate salt]
IC50 (hCMEC/D3 cells [1]; MTT, 72 h): 56.2 ± 7.74 µM
IC50 (cytotoxicity) (hCMEC/D3 cells [1]; MTT, 72 h): 116.29 ± 16 µg/mL
cell viability (hCMEC/D3 cells [2]; teicoplanin : compound 14 2:32 µg/mL, percentage of untreated control): 81.4%
toxicity of combination (hCMEC/D3 cells [2]; teicoplanin : compound 14 32:2 µg/mL): not toxic
toxicity of combination (Caco-2 cells [3]): not toxic
IC50 (Caco-2 cells [4]; MTT, 72 h): > 100 µM
IC50 (cytotoxicity) (Caco-2 cells [4]; MTT, 72 h): > 206.86 µg/mL
MIC ([5]; Staphylococcus aureus MSSA ATCC 29213, read-out: MIC): 8 µg/mL
MIC ([6]; Enterococcus faecalis ATCC 29212, read-out: MIC): 16 µg/mL
times less active than vancomycin (MIC ratio) ([6]; vancomycin sensitive E. faecalis ATCC 29212): 16 times
MIC ([7]; ATCCBAA1605, Acinetobacter baumannii ATCC BAA1605, read-out: MIC): 128 µg/mL
MIC ([8]; Pseudomonas aeruginosa ATCC 27853, read-out: MIC): 128 µg/mL
MIC ([9]; Klebsiella pneumoniae ST258 clone K 160/09, read-out: MIC): 256 µg/mL
MIC ([10]; Escherichia coli ATCC 25218, read-out: MIC): 128 µg/mL
MIC ([11]; Staphylococcus aureus MRSA ATCC 33591, read-out: MIC): 8 µg/mL
MIC ([12]; Staphylococcus epidermidis mecA, read-out: MIC): 2 µg/mL
MIC ([13]; ATCC51299, Enterococcus faecalis ATCC 51299 VanB, read-out: MIC): 32 µg/mL
MIC ([14]; ATCC35984, Staphylococcus epidermidis ATCC 35984 biofilm, read-out: MIC): 4 µg/mL
MIC ([15]; Bacillus subtilis ATCC 6633, read-out: MIC): 4 µg/mL
MIC ([16]; Enterococcus faecalis 15376 VanA, read-out: MIC): 8 µg/mL
times more potent than vancomycin (MIC ratio) ([16]; resistant VanA E. faecalis): 32 times
FIC index ([17]; 14 combined with teicoplanin): 0.2656
FIC index ([17]; 14 combined with vancomycin): 0.75
MIC ([17]; ATCCBAA1605, checkerboard, read-out: MIC of 14 alone): 128 µg/mL
MIC of 14 in comb. ([17]; combined with teicoplanin): 2 µg/mL
MIC of 14 in comb. ([17]; combined with vancomycin): 32 µg/mL
FIC index ([18]; 14 combined with teicoplanin): 0.375
FIC index ([18]; 14 combined with vancomycin): 0.5625
MIC ([18]; ATCC27853, checkerboard, read-out: MIC of 14 alone): 256 µg/mL
MIC of 14 in comb. ([18]; combined with teicoplanin): 32 µg/mL
MIC of 14 in comb. ([18]; combined with vancomycin): 64 µg/mL
Combined effect ([19]; 14 combined with teicoplanin): neither synergy nor additive activity and None
Combined effect ([19]; 14 combined with vancomycin): neither synergy nor additive activity and None
MIC ([19]; checkerboard, read-out: MIC of 14 alone): 256 µg/mL
MIC of 14 in comb. ([19]; combined with teicoplanin): 256 µg/mL
MIC of 14 in comb. ([19]; combined with vancomycin): 256 µg/mL
FIC index ([20]; 14 combined with teicoplanin): 0.2578
FIC index ([20]; 14 combined with vancomycin): 0.5078
MIC ([20]; ATCC25218, checkerboard, read-out: MIC of 14 alone): 256 µg/mL
MIC of 14 in comb. ([20]; combined with teicoplanin): 32 µg/mL
MIC of 14 in comb. ([20]; combined with vancomycin): 64 µg/mL

CN[C@H](CC(C)C)C(=O)N[C@H]1C(=O)N[C@@H](CC(N)=O)C(=O)N[C@H]2C(=O)N[C@H]3C(=O)N[C@H](C(=O)N[C@H](C(=O)O)c4cc(O)cc(O)c4-c4cc3ccc4O)[C@H](O)c3ccc(c(Cl)c3)Oc3cc2cc(c3O[C@@H]2O[C@H](CO)[C@@H](O)[C@H](O)[C@H]2O[C@H]2C[C@](C)(N)[C@H](O)[C@H](C)O2)Oc2ccc(cc2Cl)[C@H]1O [Vancomycin]
IC50 at 72 h [21]: 54.2 µM and 78.7 µg/mL
MIC ([5]; Staphylococcus aureus): 0.5 µg/mL
MIC ([6]; Enterococcus faecalis): 1 µg/mL
MIC ([7]; Acinetobacter baumannii, ATCCBAA1605): 128 µg/mL
MIC ([8]; Pseudomonas aeruginosa): 256 µg/mL
MIC ([9]; Klebsiella pneumoniae): 256 µg/mL
MIC ([10]; Escherichia coli): 256 µg/mL
MIC ([11]; Staphylococcus aureus): 0.5 µg/mL
MIC ([12]; Staphylococcus epidermidis): 4 µg/mL
MIC ([13]; Enterococcus faecalis, ATCC51299): 128 µg/mL
MIC ([14]; Staphylococcus epidermidis, ATCC35984): 2 µg/mL
MIC ([15]; Bacillus subtilis): 0.5 µg/mL
MIC ([16]; Enterococcus faecalis, 15376VANA): 256 µg/mL
MIC of antibiotic in comb. [17]: 64 µg/mL
MIC of antibiotic alone [17]: 128 µg/mL
MIC of antibiotic in comb. [18]: 16 µg/mL
MIC of antibiotic alone [18]: 256 µg/mL
MIC of antibiotic in comb. [19]: 256 µg/mL
MIC of antibiotic alone ([19]; checkerboard): 256 µg/mL
MIC of antibiotic in comb. [20]: 2 µg/mL
MIC of antibiotic alone [20]: 256 µg/mL

Teicoplanin
cytotoxic effect (hCMEC/D3 cells [1]; [22]): did not show cytotoxic effect
cytotoxic effect (Caco-2 cells [4]; [22]): did not show cytotoxic effect
MIC ([5]; Staphylococcus aureus MSSA ATCC 29213): 0.5 µg/mL
MIC ([6]; Enterococcus faecalis): 1 µg/mL
MIC ([7]; Acinetobacter baumannii ATCC BAA1605): 128 µg/mL
MIC ([8]; Pseudomonas aeruginosa): 256 µg/mL
MIC ([9]; Klebsiella pneumoniae ST258 clone K 160/09): 256 µg/mL
MIC ([10]; Escherichia coli): 256 µg/mL
MIC ([11]; Staphylococcus aureus MRSA ATCC 33591): 0.5 µg/mL
MIC ([12]; Staphylococcus epidermidis mecA): 16 µg/mL
MIC ([13]; Enterococcus faecalis ATCC 51299 VanB): 0.5 µg/mL
MIC ([14]; Staphylococcus epidermidis ATCC 35984 biofilm): 4 µg/mL
MIC ([15]; Bacillus subtilis): 0.5 µg/mL
MIC ([16]; Enterococcus faecalis 15376 VanA): 256 µg/mL
MIC of antibiotic in comb. [17]: 32 µg/mL
MIC of antibiotic alone [17]: 128 µg/mL
MIC of antibiotic in comb. [18]: 32 µg/mL
MIC of antibiotic alone [18]: 256 µg/mL
MIC of antibiotic in comb. [19]: 256 µg/mL
MIC of antibiotic alone ([19]; checkerboard): 256 µg/mL
MIC of antibiotic in comb. [20]: 2 µg/mL
MIC of antibiotic alone [20]: 256 µg/mL
